The source of these data is BindingDB's records for PubMed 40136287 (CSIR-Institute of Microbial Technology).

By IC50 is commonly meant the concentration that inhibits the measured activity by half. Lower therefore signals higher potency.

The target in this assay is Metallo-beta-lactamase type 2 (Klebsiella pneumoniae, UniProt C7C422). The assay is described as follows: Inhibition of NDM1 (unknown origin).

SMILES strings stand for the structures.

Sequence of Metallo-beta-lactamase type 2 (C7C422 whole entry): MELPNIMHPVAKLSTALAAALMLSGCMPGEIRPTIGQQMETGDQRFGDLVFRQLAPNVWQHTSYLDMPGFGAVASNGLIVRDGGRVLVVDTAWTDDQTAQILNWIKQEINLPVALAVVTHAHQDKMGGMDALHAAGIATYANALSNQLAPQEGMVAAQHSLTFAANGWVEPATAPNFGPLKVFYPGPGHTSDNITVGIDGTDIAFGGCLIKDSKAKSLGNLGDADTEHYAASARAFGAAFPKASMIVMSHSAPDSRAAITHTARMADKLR

The compound `O=C(O)c1ccccn1` displayed an IC50 of 17.1 µM.
